Reference: patent publication US20260174780A1, “BISMUTH-THIOL COMPOSITIONS AND METHODS FOR TREATING INFLAMMATORY DISEASES” (Microbion Corporation, priority 2022, published 2026)

What was measured:
[1] = system: FITC-induced contact hypersensitivity; experiment: FITC-induced contact hypersensitivity in mice (ear swelling, histopathology, ear cytokines); format: in vivo, BALB/c mice; settings: Group 3, 1 mg/mL topical; mean ± standard deviation
Description: Protocol: Male BALB/c mice at 8 weeks old are used in the study.
All animals, except those in Group 1 (Sham), were sensitized topically (TOP) on the shaved abdominal skin with 200 μL of 0.5% Fluorescein Isothiocyanate (FITC) dissolved in 20% tributyrin in acetone on Days 1 and 2. On Day 7, animals were challenged by applying 20 μL of 0.5% FITC solution onto both sides of the right ear. Animals in Group 1 received nothing.
Vehicle, BisEDT test articles and reference compound (tacrolimus) were administered topically (TOP) once daily (QD) from Day 6 to Day 9 for 4 consecutive days (1 hour before FITC challenge on Day 7). The vehicle for BisEDT was phosphate-buffered saline (PBS).
• 2.5 mg/mL BisEDT topical suspension • 1.25 mg/mL BisEDT topical suspension—prepared as a 1:1 dilution of 2.5 mg/mL BisEDT topical suspension in sterile water and vortexed to ensure homogeneity
Analysis: Ear swelling was measured by an experimenter blinded to treatment group, with a dial thickness micrometer gauge as an index of inflammation 30 min before dosing on Days 7, 8, 9 and 10. On Day 10, ear swelling was measured at 24 hours after the last dosing. Ear edema was calculated by subtracting the thickness of Day 7 (normal control) from Day n (treated ear). Percentage inhibition was calculated according to the formula: (Ic−It)/Ic×100, where Ic and It refer to the increase of ear thickness (mm) both in the control and treated animals. Body weight was recorded daily during the study period.
The animals were sacrificed on Day 10 and the ears were then harvested and weighed. Half of the right ear was fixed in 10% formalin for histopathology, and the other half was processed for cytokine measurement (IL-18, IL-6, and IL-10) using ThermoFisher Mouse ProcartaPlex Kit by Luminex.

[2] = system: lung tissue of M. abscessus infected mice; experiment: Lung histopathology in chronic M. abscessus infection study; format: in vivo, SCID/Beige mice; settings: amikacin-treated (100 mg/kg/day), FIG. 5B
Description: After 28 days of treatment with BisEDT, animals were euthanized by CO2 and secondary cardiac puncture to collect whole blood for quantitation of BisEDT concentration. Lungs and spleens from the CFU mice were homogenized with 1:1 H2O:Dey-Englev neutralizing broth to deactivate BisEDT. CFUs were determined after serial dilution. Mice for histology and the lung pair split, one half in formalin the other half weighed and snap frozen in liquid N2 to determine tissue concentration of BisEDT.
Samples for histology were processed by the Veterinary Diagnostic Laboratory. Slides were stained with hematoxylin-eosin (HE stain) for general pathology as well as a slide for acid-fast stain to highlight the mycobacterial infection in lung tissue.

Hypo-InflammaSkin models = experiment: Ex vivo human skin model of psoriasis (Hypo-InflammaSkin), cytokine release in culture medium; format: cell-based; settings: betamethasone 0.05% topical 25 μL daily Day 0-6
Description: Background: InflammaSkin® model is a validated psoriasis-like model developed to reproduce key features of pro-Th17/Th1 inflammation associated with psoriasis. It relies on the in situ activation of resident T-cell of normal skin biopsies and their further polarization into Th17/Th1 phenotype with the supplementation of culture medium with a cocktail of pro-inflammatory cytokines.
Model production and culture: 2 HypoSkin models of 15 mm in diameter (1.76 cm^2) were produced from 1 donor and cultured with 2 mL standard HypoSkin® medium. 20 Hypo-InflammaSkin models were produced from 1 donor by inducing in sit activation and Th17/Th1 polarization of skin resident T cells with proprietary cocktail and cultured with 2 mL Hypo-InflammaSkin® culture medium. The total treatable surface area of the models was 113 mm^2, and dosing of BisEDT took this into account based on dosing of the topical treatment. Models were maintained in standard cell culture conditions for the whole culture duration at 37° C., 5% CO2 and water saturation, with appropriate culture medium renewed every day.
Treatment Groups: Model Treatment: (1) HypoSkin® untreated control; (2) Hypo-InflammaSkin® untreated control; (3) topical betamethasone (positive control); (4) topical BisEDT—2.5 mg/mL (treatment applied every day from day 0 to 6; (5) topical BisEDT—1.25 mg/mL (treatment applied every day from day 3 to 6). N=3 per treatment group, except N=5 for Hypo-InflammaSkin® and N=1 for HypoSkin®.
Topical Treatment—Betamethasone (control): 25 μL of betamethasone was topically applied onto the surface of each skin model. Topical application was performed from Day 0 to Day 6 after removal of the previous treatment residues using a cotton swab.
Topical Treatment—BisEDT: 36 μL of the test compound was topically applied onto the surface of each skin model, massaging across the entire surface area for 1 minute, using a parafilm wrapped cotton swab; the compound was left on the skin. Topical application was performed from Day 0 to Day 6 (Treatment Group 4) or Day 3 to Day 6 (Treatment Group 5). A total of 9 models were topically treated.
Culture Media—culture media was collected on Day 3 prior to treatment application and on Day 7 and frozen at −80° C. A total of 42 culture media samples were collected.
IL-22 release: IL-22 release was measured in culture media using ELISA Human IL-22 Quantikine Kit (Bio-techne, ref D2200). Only samples from control conditions 1 to 3 were analyzed to assess donor's response to T cell activation. Each sample was analyzed in duplicate.
MSD Immunoassay—cytokine release (IL-2, IL-13, IL-15, IL-17A, IL-22, TNF-α, INF-γ, MIP-1β, and […]) in the culture medium was measured using the V-PLEX Plus Human Cytokine Kit (KI5089G, MesoScale Discovery) (FIGS. 13D-13S).

`C=CC[C@@H]1/C=C(\C)C[C@H](C)C[C@H](OC)[C@H]2O[C@@](O)(C(=O)C(=O)N3CCCC[C@H]3C(=O)O[C@H](/C(C)=C/[C@@H]3CC[C@@H](O)[C@H](OC)C3)[C@H](C)[C@@H](O)CC1=O)[C@H](C)C[C@@H]2OC` [Tacrolimus, tacrolimus] was tested, and the “Hyperkeratosis (lesion score)” value [1] was 0.88 ± 0.64, the “Hyperplasia (lesion score)” value [1] was 1.63 ± 0.52 and the “Inflammation (lesion score)” value [1] was 1.38 ± 0.52. The “Necrosis (lesion score)” value [1] was 0.13 ± 0.35 and the Total histological score [1] was 4.00 ± 1.69.
For `NCC[C@H](O)C(=O)N[C@@H]1C[C@H](N)[C@@H](O[C@H]2O[C@H](CN)[C@@H](O)[C@H](O)[C@H]2O)[C@H](O)[C@H]1O[C@H]1O[C@H](CO)[C@@H](O)[C@H](N)[C@H]1O` [amikacin, reference compound], the lung histomorphologic observation [2] was “infiltration of mononuclear phagocytes, interstitial edema, and interstitial hemorrhage”.
For `C[C@H]1C[C@H]2[C@@H]3CCC4=CC(=O)C=C[C@]4(C)[C@@]3(F)[C@@H](O)C[C@]2(C)[C@@]1(O)C(=O)CO` [betamethasone, reference compound], the “IL-22 release, average concentration (ELISA)” value (Hypo-InflammaSkin models) was 16.67 µg/mL.
